Each structure is given as a SMILES string. Converted amounts (≈) assume the structure as drawn. Bounds are passed on as bounds.

Common to all, as to format: functional
For assay [1], the system named is Escherichia coli. Put plainly: Antibacterial activity Escherichia coli ATCC 8739 assessed as reduction in bacterial growth.
Assay [2] has as its system Bacillus subtilis. Briefly: Antibacterial activity Bacillus subtilis ATCC 49343 assessed as reduction in bacterial growth.
In assay [3] the test system is Staphylococcus aureus. Briefly: Antibacterial activity Staphylococcus aureus ATCC 25923 assessed as reduction in bacterial growth.
A further assay relates to Streptococcus suis. Briefly: Antibacterial activity against Streptococcus suis SC19 assessed as reduction in bacterial growth by CLSI protocol based MHB micro-silution method.
The test system of assay [4] is Staphylococcus aureus. Briefly: Antibacterial activity against Staphylococcus aureus ATCC 25923 assessed as reduction in bacterial growth by CLSI protocol based MHB micro-silution method.
Assay [5] deals with Erysipelothrix rhusiopathiae. Briefly: Antibacterial activity against Erysipelothrix rhusiopathiae WH13013 assessed as reduction in bacterial growth by CLSI protocol based MHB micro-silution method.
Another assay relates to Acinetobacter baumannii. Put plainly: Antibacterial activity against Acinetobacter baumannii ATCC 19606 assessed as reduction in microbial growth by CLSI protocol based broth micro-dilution method. For orientation: Broth dilution looks for growth in wells or tubes with falling amounts of substance.
In assay [6] the test system is Escherichia coli. Put plainly: Antibacterial activity against Escherichia coli DH5a.
Assay [7] relates to Bacillus subtilis. Briefly: Antibacterial activity against Bacillus subtilis.
Assay [8] relates to Staphylococcus aureus. Put plainly: Antibacterial activity against Staphylococcus aureus.
The subject of a further assay is Kocuria rhizophila. Put plainly: Antimicrobial activity against Kocuria rhizophila ATCC 9341 assessed as reduction in microbial growth.

As a reminder, the MIC is the lowest concentration that inhibits growth of the organism. Regarding `C=C(C)[C@@H]1CC[C@H](C)[C@H]2CC/C(C)=C/C[C@H](O)/C(C(=O)O)=C/[C@H]21`, the MIC in the assay on Escherichia coli [1] came out at 125 µg/mL (≈ 394 µM); in the assay with Bacillus subtilis [2], 1.1 µg/mL (≈ 3.45 µM); with Staphylococcus aureus [3], 49.7 µg/mL (≈ 156 µM).

Take `C[C@@H](O)Cc1cc(O)cc2c1C(=O)c1c(O)ccc(O)c1C2=O`: the MIC is 12.5 µg/mL (≈ 39.8 µM) in the assay with Streptococcus suis, 0.78 µg/mL (≈ 2.48 µM) with Staphylococcus aureus [4] and 6.25 µg/mL (≈ 19.9 µM) in assay [5].

For `COc1cc(-c2ccccn2)nc(/C=N/O)c1S(C)(=O)=O`, the MIC with Acinetobacter baumannii worked out at 128 µg/mL.

In the case of `C=C(C)[C@@H]1CC[C@H](C)[C@H]2CC/C(C)=C/CC/C(C)=C/[C@H]21`, the MIC in the assay on Escherichia coli [1] amounted to 133 µg/mL (≈ 488 µM); with Bacillus subtilis [2], 48.4 µg/mL (≈ 178 µM); in the assay on Staphylococcus aureus [3], 86.9 µg/mL (≈ 319 µM).

As for `COc1ccc(OC)c([C@@H](O)[C@@H](C)C(=O)c2ccc(OC)c(C(=O)O)c2O)c1`, the MIC against Escherichia coli [6] is over 100 µg/mL; with Bacillus subtilis [7] it was 10 µg/mL (≈ 25.6 µM); against Staphylococcus aureus [8], 18 µg/mL (≈ 46.1 µM).

Take `CC(C)C[C@H](NC(=O)/C=N/O)[C@@H](O)[C@@H](C)C(=O)O`: the MIC in the assay on Kocuria rhizophila came to 50 µg/mL.
